The values that follow are results of earlier work, collected in patent US20240398940A1, “NOVEL LIPID NANOPARTICLES FOR DELIVERY OF NUCLEIC ACIDS” (CureVac SE, priority 2021, published 2024).

Where two headings read alike, the source gives them in different places.

The conditions of data set [1]: in vivo.

As to `Cc1c(C)c2c(c(C)c1OC(=O)CCC(=O)OCCC1CCN(CCSSCCN3CCC(CCOC(=O)CCC(=O)Oc4c(C)c(C)c5c(c4C)CCC(C)(CCCC(C)CCCC(C)CCCC(C)C)O5)CC3)CC1)CCC(C)(CCCC(C)CCCC(C)CCCC(C)C)O2` (stereo not shown) [C23, COATSOME ® SS-EC], the charge entry reads like this: (pH 4) “positive charge”; (pH 7) “neutral charge”.

Turning to poly(2-methyl-2-oxazoline) [PMOZ], in data set [1], the accumulation in tissue entry is “no significant accumulation in tissue” and the excretion result is on record as “rapidly excreted by the kidney”.
